From ChEMBL document CHEMBL1128570, “Binding of 5H-dibenzo[a,d]cycloheptene and dibenz[b,f]oxepin analogues of clozapine to dopamine and serotonin receptors” (J Med Chem, 1995)

Key:
[1] = Ratio of Ki value towards dopamine D2L receptor to that of serotonin S-2A receptor.
[2] = target: T1, 5-hydroxytryptamine receptor 2A (Rattus norvegicus, UniProt P14842); assay: Ability to inhibit the binding of iodine-125-labelled lysergic acid diethylamide([125I]-LSD) to the S-2A serotonin receptor.
[3] = target: T2, 5-hydroxytryptamine receptor 2C (Rattus norvegicus, UniProt P08909); assay: Ability to inhibit the binding of iodine-125-labelled lysergic acid diethylamide([125I]-LSD) to the S-2C serotonin receptor.
T2 sequence (P08909 whole entry): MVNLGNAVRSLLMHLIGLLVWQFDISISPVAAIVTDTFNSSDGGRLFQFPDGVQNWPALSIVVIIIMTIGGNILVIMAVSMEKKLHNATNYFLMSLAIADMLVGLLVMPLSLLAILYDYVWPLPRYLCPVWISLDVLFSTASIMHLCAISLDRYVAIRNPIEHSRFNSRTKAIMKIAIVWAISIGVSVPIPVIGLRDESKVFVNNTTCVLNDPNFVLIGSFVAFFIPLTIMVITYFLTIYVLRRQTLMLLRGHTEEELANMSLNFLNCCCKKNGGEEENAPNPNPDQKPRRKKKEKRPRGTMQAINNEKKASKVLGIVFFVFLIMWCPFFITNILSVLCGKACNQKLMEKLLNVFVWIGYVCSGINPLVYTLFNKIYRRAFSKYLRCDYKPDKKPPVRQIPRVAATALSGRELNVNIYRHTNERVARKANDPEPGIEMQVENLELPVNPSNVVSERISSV

D(2) dopamine receptor = D(2) dopamine receptor (Homo sapiens, UniProt P14416); assay: Ability to inhibit the binding of [3H]spiperone to the Dopamine receptor D2L in COS7 cells; type: cell-based, COS-7
D(2) dopamine receptor, sequence (P14416 whole entry): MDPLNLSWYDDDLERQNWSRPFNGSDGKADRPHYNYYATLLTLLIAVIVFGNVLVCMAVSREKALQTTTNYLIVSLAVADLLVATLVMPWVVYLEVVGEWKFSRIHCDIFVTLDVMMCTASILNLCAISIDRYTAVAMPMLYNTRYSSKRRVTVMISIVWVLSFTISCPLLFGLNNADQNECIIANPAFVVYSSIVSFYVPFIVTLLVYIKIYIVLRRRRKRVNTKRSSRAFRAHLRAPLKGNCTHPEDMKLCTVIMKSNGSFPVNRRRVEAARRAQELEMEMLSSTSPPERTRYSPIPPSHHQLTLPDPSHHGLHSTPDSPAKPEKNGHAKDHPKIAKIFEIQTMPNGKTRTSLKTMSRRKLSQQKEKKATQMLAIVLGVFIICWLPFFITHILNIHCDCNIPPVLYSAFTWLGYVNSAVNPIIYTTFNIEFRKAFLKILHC

D(4) dopamine receptor = target: T3, D(4) dopamine receptor (Homo sapiens, UniProt P21917); assay: Ability to inhibit the binding of [3H]spiperone to the Dopamine receptor D4 in COS7 cells; type: cell-based, COS-7
T3 sequence (P21917 whole entry): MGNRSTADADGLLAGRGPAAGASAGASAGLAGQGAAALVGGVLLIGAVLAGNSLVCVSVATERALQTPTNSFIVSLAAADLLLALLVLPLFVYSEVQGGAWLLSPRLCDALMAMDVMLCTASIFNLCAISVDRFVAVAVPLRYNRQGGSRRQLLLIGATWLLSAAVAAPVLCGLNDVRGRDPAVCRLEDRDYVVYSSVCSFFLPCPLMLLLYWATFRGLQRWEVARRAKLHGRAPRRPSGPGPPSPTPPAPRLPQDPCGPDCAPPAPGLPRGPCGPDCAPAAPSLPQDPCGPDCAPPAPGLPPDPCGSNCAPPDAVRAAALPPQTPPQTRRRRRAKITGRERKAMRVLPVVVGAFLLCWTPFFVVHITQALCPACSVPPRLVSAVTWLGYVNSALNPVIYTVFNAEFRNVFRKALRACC

[4] = target: T1, 5-hydroxytryptamine receptor 2A; assay: Ability to inhibit the binding of iodine-125-labelled lysergic acid diethylamide([125I]-LSD) to the S-2A serotonin receptor in NIH3T3 cell line membranes; type: cell-based
[5] = target: T2, 5-hydroxytryptamine receptor 2C; assay: Ability to inhibit the binding of iodine-125-labelled lysergic acid diethylamide([125I]-LSD) to the S-2C serotonin receptor in NIH3T3 cell line membranes; type: cell-based

T1 sequence (P14842 whole entry): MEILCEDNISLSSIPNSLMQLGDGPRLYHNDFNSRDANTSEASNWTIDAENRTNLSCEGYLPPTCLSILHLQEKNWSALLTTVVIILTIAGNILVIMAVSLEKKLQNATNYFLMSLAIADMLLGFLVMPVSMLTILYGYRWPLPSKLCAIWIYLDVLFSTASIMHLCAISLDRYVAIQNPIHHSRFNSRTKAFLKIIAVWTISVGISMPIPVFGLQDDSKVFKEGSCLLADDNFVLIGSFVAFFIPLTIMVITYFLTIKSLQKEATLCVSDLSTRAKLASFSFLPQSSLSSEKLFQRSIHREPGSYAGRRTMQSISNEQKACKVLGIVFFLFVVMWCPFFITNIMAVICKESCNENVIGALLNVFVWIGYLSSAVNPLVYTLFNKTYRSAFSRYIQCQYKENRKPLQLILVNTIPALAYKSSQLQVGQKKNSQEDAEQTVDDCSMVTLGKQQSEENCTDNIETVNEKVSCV

| Compound | Ratio [1] | Ki [2] | Ki [3] | Ki (D(2) dopamine receptor) | Ki (D(4) dopamine receptor) | Ki [4] | Ki [5] |
| --- | --- | --- | --- | --- | --- | --- | --- |
| CC(C)=C1c2ccccc2C=C(C2=CCN(C)CC2)c2ccccc21 | 0.48 |  |  |  |  |  |  |
| CN1CCC(C2=Cc3ccccc3Oc3ccccc32)CC1 | 30 |  |  | 82 nM | 9.5 nM | 3 nM | 8 nM |
| CN1CC=C(C2=Cc3ccccc3Oc3ccccc32)CC1 |  |  |  |  | 29 nM | 6 nM | 20 nM |
| CC(C)=C1c2ccccc2C=C(C2=CCN(C)CC2)c2cc(Cl)ccc21 | 0.58 | 760 nM | 1200 nM | 440 nM | 100 nM |  |  |
| CN1CCN(C2=Cc3ccccc3Oc3ccccc32)CC1 | 5 |  |  |  |  |  |  |
| CC1c2ccccc2C=C(C2=CCN(C)CC2)c2ccccc21 (configuration not stated) | 9.4 |  |  |  |  |  |  |
| C=CCN1CC=C(C2=Cc3ccccc3Oc3ccccc32)CC1 | 5 |  |  | 110 nM | 37 nM | 22 nM | 51 nM |
| CN1CCN(C2=Cc3ccccc3Oc3ccc(Cl)cc32)CC1 | 0.8 |  |  |  |  |  |  |

The remaining lines, values ahead:

| Ratio [1] | Ki [2] | Ki [3] | Ki (D(2) dopamine receptor) | Ki (D(4) dopamine receptor) | Ki [4] | Ki [5] | Compound |
| --- | --- | --- | --- | --- | --- | --- | --- |
| 4.2 | 20 nM | 46 nM | 83 nM | 60 nM |  |  | C=CCN1CC=C(C2=Cc3ccccc3Cc3ccccc32)CC1 |
| 9.8 | 4.5 nM | 7 nM | 44 nM | 28 nM |  |  | CCN1CC=C(C2=Cc3ccccc3Cc3ccccc32)CC1 |
| 15 | 6 nM | 14 nM | 89 nM | 12 nM |  |  | CN1CC=C(C2=Cc3ccccc3Cc3ccccc32)CC1 |
| 10 |  |  | 61 nM | 26 nM | 6 nM | 14 nM | CCN1CC=C(C2=Cc3ccccc3Oc3ccccc32)CC1 |
